Results published in patent publication US20080280862A1, “Methods, compositions, and kits for the treatment of pain” (priority 2007, published 2008).

What was measured:
[1] = tested on: formalin-induced pain model in rats; assay: Formalin pain model, nociceptive behaviors; assay type: in vivo, Sprague-Dawley rats; settings: Experiment One, amitriptyline
Method: The formalin model is a fast, reliable model used to assess potential analgesics ability to block inflammatory pain. The analgesic effects of test article combinations on pain generation are assayed using the formalin-induced pain model in rats. Adult male Sprague-Dawley rats are administered intraperitoneally study drugs (vehicle, TCA, steroid or TCA/Steroid test article combinations) once daily for 2 days (day −2 and day −1) and 30 minutes prior to the formalin injection day on day 0 (time=0). […] To elicit a pain response, dilute formalin (2% in saline) is injected under the skin of the plantar surface of the right hindpaw. The animal is placed in an observation chamber. The pain response is a characteristic biphasic response pattern of nociceptive behaviors (lifting, licking, and biting of the injected paw). Two distinct periods of nociceptive behaviors/activity are observed and recorded: an early phase (phase I) lasting the first 5-10 min and a late phase (phase II) lasting 20-40 min after the injection of formalin. One hour of data is collected (time spent displaying pain behavior) by a blinded observer using a stopwatch. Results are expressed as the number of pain behaviors per 5 minute periods (Table 8 and Table 9).

[2] = tested on: acetic acid-induced pain model in mice; assay: Acetic acid pain model, writhes; assay type: in vivo, ICR mice
Method: The acetic acid is a reliable fast model for noxious/visceral pain usually used for screening potential drug candidates for their analgesic activity. The effects of test article combinations on pain generation are assayed using the acetic acid-induced pain model in mice. Adult male ICR mice are administered study drugs intraperitoneally (vehicle, TCA, steroid or TCA/Steroid test article combinations) once daily for 2 days (day −2 and day −1) and 30 minutes prior to the acetic acid injection on day 0 (time=0). […] To elicit a pain response, dilute acetic acid (10 ml/kg of 0.6% solution) is injected intraperitoneally into the abdomen. The animal is placed in an observation chamber, and 5 minutes after acetic acid administration, the number of writhes is counted and recorded over a five minute period by a blinded observer. A writhe is considered as a contraction of the abdominal muscles accompanied by an elongation of the body and extension of the hind limb. Results are expressed as number of writhes.

SMILES: CN(C)CCC=C1c2ccccc2CCc2ccccc21 [Amitriptyline]
- Mean number of behaviors per 5 minute block ([1]; 1 mg/kg, 5 minutes): 233.0 ± 10.0
- Mean number of behaviors per 5 minute block ([1]; 1 mg/kg, 10 minutes): 52.0 ± 23
- Mean number of behaviors per 5 minute block ([1]; 1 mg/kg, 15 minutes): 84.0 ± 28.0
- Mean number of behaviors per 5 minute block ([1]; 1 mg/kg, 20 minutes): 49.0 ± 39.0
- Mean number of behaviors per 5 minute block ([1]; 1 mg/kg, 25 minutes): 228.0 ± 31.0
- Mean number of behaviors per 5 minute block ([1]; 1 mg/kg, 30 minutes): 244.0 ± 19.0
- Mean number of behaviors per 5 minute block ([1]; 1 mg/kg, 35 minutes): 240.0 ± 17.0
- Mean number of behaviors per 5 minute block ([1]; 1 mg/kg, 40 minutes): 214.0 ± 27.0
- Mean number of behaviors per 5 minute block ([1]; 1 mg/kg, 45 minutes): 167.0 ± 31.0
- Mean number of behaviors per 5 minute block ([1]; 1 mg/kg, 50 minutes): 63.0 ± 23.0
- Mean number of behaviors per 5 minute block ([1]; 1 mg/kg, 55 minutes): 39.0 ± 21.0
- Mean number of behaviors per 5 minute block ([1]; 1 mg/kg, 60 minutes): 28.0 ± 23.0
- Mean number of behaviors per 5 minute block ([1]; 3 mg/kg, 5 minutes): 206.0 ± 16.2
- Mean number of behaviors per 5 minute block ([1]; 3 mg/kg, 10 minutes): 59.0 ± 23.2
- Mean number of behaviors per 5 minute block ([1]; 3 mg/kg, 15 minutes): 64.0 ± 21.6
- Mean number of behaviors per 5 minute block ([1]; 3 mg/kg, 20 minutes): 166.0 ± 36.7
- Mean number of behaviors per 5 minute block ([1]; 3 mg/kg, 25 minutes): 229.0 ± 29.4
- Mean number of behaviors per 5 minute block ([1]; 3 mg/kg, 30 minutes): 242.0 ± 27.6
- Mean number of behaviors per 5 minute block ([1]; 3 mg/kg, 35 minutes): 210.0 ± 35.9
- Mean number of behaviors per 5 minute block ([1]; 3 mg/kg, 40 minutes): 242.0 ± 30.3
- Mean number of behaviors per 5 minute block ([1]; 3 mg/kg, 45 minutes): 174.0 ± 36.0
- Mean number of behaviors per 5 minute block ([1]; 3 mg/kg, 50 minutes): 119.0 ± 45.0
- Mean number of behaviors per 5 minute block ([1]; 3 mg/kg, 55 minutes): 73.0 ± 36.6
- Mean number of behaviors per 5 minute block ([1]; 3 mg/kg, 60 minutes): 47.0 ± 26.9
- Mean number of behaviors per 5 minute block ([1]; 10 mg/kg, 5 minutes): 217.0 ± 18.1
- Mean number of behaviors per 5 minute block ([1]; 10 mg/kg, 10 minutes): 16.0 ± 8.8
- Mean number of behaviors per 5 minute block ([1]; 10 mg/kg, 15 minutes): 45.0 ± 24.1
- Mean number of behaviors per 5 minute block ([1]; 10 mg/kg, 20 minutes): 84.0 ± 39.0
- Mean number of behaviors per 5 minute block ([1]; 10 mg/kg, 25 minutes): 128.0 ± 41.0
- Mean number of behaviors per 5 minute block ([1]; 10 mg/kg, 30 minutes): 151.0 ± 40.9
- Mean number of behaviors per 5 minute block ([1]; 10 mg/kg, 35 minutes): 152.0 ± 41.1
- Mean number of behaviors per 5 minute block ([1]; 10 mg/kg, 40 minutes): 138.0 ± 39.4
- Mean number of behaviors per 5 minute block ([1]; 10 mg/kg, 45 minutes): 67.0 ± 26.7
- Mean number of behaviors per 5 minute block ([1]; 10 mg/kg, 50 minutes): 70.0 ± 27.8
- Mean number of behaviors per 5 minute block ([1]; 10 mg/kg, 55 minutes): 42.0 ± 13.8
- Mean number of behaviors per 5 minute block ([1]; 10 mg/kg, 60 minutes): 45.0 ± 25.2
- Mean number of behaviors per 5 minute block ([1]; 20 mg/kg, 5 minutes): 168.0 ± 24.3
- Mean number of behaviors per 5 minute block ([1]; 20 mg/kg, 10 minutes): 41.0 ± 22.4
- Mean number of behaviors per 5 minute block ([1]; 20 mg/kg, 15 minutes): 1.0 ± 0.9
- Mean number of behaviors per 5 minute block ([1]; 20 mg/kg, 20 minutes): 13.0 ± 10.2
- Mean number of behaviors per 5 minute block ([1]; 20 mg/kg, 25 minutes): 32.0 ± 13.7
- Mean number of behaviors per 5 minute block ([1]; 20 mg/kg, 30 minutes): 81.0 ± 34.3
- Mean number of behaviors per 5 minute block ([1]; 20 mg/kg, 35 minutes): 93.0 ± 41.3
- Mean number of behaviors per 5 minute block ([1]; 20 mg/kg, 40 minutes): 85.0 ± 37.2
- Mean number of behaviors per 5 minute block ([1]; 20 mg/kg, 45 minutes): 99.0 ± 34.0
- Mean number of behaviors per 5 minute block ([1]; 20 mg/kg, 50 minutes): 82.0 ± 33.8
- Mean number of behaviors per 5 minute block ([1]; 20 mg/kg, 55 minutes): 66.0 ± 36.8
- Mean number of behaviors per 5 minute block ([1]; 20 mg/kg, 60 minutes): 59.0 ± 31.1
- Mean # of writhes per 5 minutes ± SEM ([2]; 1 mg/kg ip): 8.71 ± 2.44
- Mean # of writhes per 5 minutes ± SEM ([2]; 3 mg/kg ip): 11.62 ± 2.94
- Mean # of writhes per 5 minutes ± SEM ([2]; 5 mg/kg ip): 4.50 ± 2.04
- Mean # of writhes per 5 minutes ± SEM ([2]; 10 mg/kg ip): 0.79 ± 0.79
